16 compounds from patent US9133163B2, “Dihydropyrazole GPR40 modulators” (Bristol-Myers Squibb Company, priority 2012, dated 2015) can be followed below.

The subject of experiment [1] is C57BL6 mice. The experiment in a line: Acute oral glucose tolerance test. The format is in vivo. As to conditions: % change in glucose AUC (0-180 min) from vehicle, 0.3 mg/kg oral; for Acute oral glucose tolerance: co-administered with glucose 2 g/kg. How it is done: Acute Oral Glucose Tolerance Test
Ten week old C57BL6 mice were housed individually and fasted for 5 hours on the day of study. Tail vein sampling was performed from nicked tails to obtain plasma samples. Baseline plasma samples were taken at t=0. Mice were orally treated with vehicle or compounds co-administered with glucose (2 g/kg). Sampling thereafter from tails of treated mice at 20, 40, 60, 120 and 180 min provided data used for generating glucose excursion curves from which 0-180 min blood glucose excursion profiles were generated. The area under the curve (AUC) allowed for assessment of glucose lowering by compound treatments. Blood samples were collected in EDTA-treated tubes (MICROVETTE® CB300, Sarstedt, Numbrecht, Germany), stored on ice and spun @ 6000 rpm for 10 minutes. Plasma glucose was analyzed on the same day using an AU680 Clinical Chemistry Analyzer (Beckman Coulter, Brea, Calif.). Statistical analysis is a one way ANOVA with Dunnett's post hoc test or two-way student's t test where appropriate. P values less than 0.05 were considered statistically significant.

For experiment [2], the target named is T1, hGPR40 (Homo sapiens, UniProt O14842). The experiment in a line: GPR40 IP-One HTRF assay in HEK293/GPR40 inducible cell lines. Type of experiment: cell-based. On the set-up: expressed in transfected cells. As to conditions: HEK293 cells with tetracycline-inducible human GPR40; read-out: hGPR40 IP1 EC50. How it is done: GPR40 IP-One HTRF Assays in HEK293/GPR40 Inducible Cell Lines
Human, mouse and rat GPR40-mediated intracellular IP-One HTRF assays were established using human embryonic kidney HEK293 cells stably transfected with a tetracycline-inducible human, mouse or rat GPR40 receptor. Cells were routinely cultured in growth medium containing DMEM (Gibco Cat. #12430-047), 10% qualified FBS (Sigma, Cat. #F2442), 200 μg/ml hygromycin (Invitrogen, Cat. #16087-010) and 1.5 μg/ml blasticidin (Invitrogen, Cat. #R210-01). About 12-15 million cells were passed into a T175 tissue culture flask (BD FALCON® 353112) with growth medium and incubated for 16-18 hours (overnight) at 370 C with 5% CO2. The next day, assay medium was exchanged with growth medium containing 1000 ng/mL of tetracycline (Fluka Analytical, Cat. #87128) to induce GPR40 expression for 18-24 hours at […] incubator with 5% CO2. After induction, the cells were washed with PBS (Gibco, Cat. #14190-036) and detached with Cell Stripper (CELLGRO®, Cat. #25-056-CL). 10-20 mL growth medium were added to the flask and cells were collected in 50 mL tubes (FALCON®, Cat. #352098) and spun at 1000 RPM for 5 minutes. Culture medium was aspirated and the cells were resuspended in 10 mL of 1× IP-One Stimulation Buffer from the Cisbio IP-One kit (Cisbio, Cat. #62IPAPEJ). The cells were diluted to 1.4×10^6 cells/mL in Stimulation Buffer.
Test compounds were 3-fold, 11-point serially diluted in DMSO in a REMP assay plate (Matrix Cat. #4307) by BIOCEL® (Agilent). The compounds were transferred into an Echo plate (LABCYTE, Cat. #LP-0200) and […] of diluted compounds were transferred to an assay plate (proxi-plate from Perkin Elmer, Cat. #6008289) by Echo acoustic nano dispenser (LABCYTE, model ECHO550). 14 μL of the diluted cells were then added to the assay plate by Thermo (SN 836 330) CombiDrop and incubated at room temperature for 45 minutes. Then 3 μL of IP1 coupled to dye D2 from the Cisbio IP-One kit were added to the assay plate followed by 3 μL of Lumi4TM-Tb cryptate K from the kit. The plate was further incubated at room for 1 hour before reading on the Envision (Perkin Elmer Model2101) with an HTRF protocol. Activation data for the test compound over a range of concentrations was plotted as percentage activation of the test compound (100%=maximum response). After correcting for background [(sample read-mean of low control)/(mean of high control−mean of low control)](low control is DMSO without any compound), EC50 values were determined. The EC50 is defined as the concentration of test compound which produces 50% of the maximal response and was quantified using the 4 parameter logistic equation to fit the data.
In general terms: In TR-FRET formats the signal depends on donor and acceptor labels being close together.

The target in experiment [3] is T1, hGPR40. The experiment in a line: FDSS-based intracellular calcium assay. On the set-up: 3xFLAG; expressed in transfected cells. Type of experiment: cell-based. As to conditions: intracellular Ca2+ response, cells expressing GPR40. How it is done: FDSS-Based Intracellular Calcium Assay
Compounds are dissolved in DMSO and diluted to desired concentrations with assay buffer and added to the cells as 3× solution (20 μL per well). Run fluorescence/luminescence reader FDSS (Hamamatsu) to read intracellular Ca^2+ response.
(In general: Calcium assays in cells follow changes in intracellular calcium, usually with a dye or a luminescent sensor.)

T1 sequence (O14842 whole entry): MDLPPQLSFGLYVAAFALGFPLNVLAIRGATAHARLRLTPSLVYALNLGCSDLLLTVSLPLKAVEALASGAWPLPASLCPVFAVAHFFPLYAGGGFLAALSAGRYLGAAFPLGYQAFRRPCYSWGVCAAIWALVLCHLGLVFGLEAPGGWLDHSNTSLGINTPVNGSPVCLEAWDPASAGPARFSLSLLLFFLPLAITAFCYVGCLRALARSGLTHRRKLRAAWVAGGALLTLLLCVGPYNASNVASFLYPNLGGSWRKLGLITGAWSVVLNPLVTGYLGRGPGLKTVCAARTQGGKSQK

Usually EC50 stands for the concentration needed to bring the measured effect to its halfway point. Turning to `CCOc1ccc(F)c(N2CCC(Oc3ccc(N4N=C(C(F)(F)F)[C@@H](C)[C@@H]4CC(=O)O)cc3)C(CC)C2)c1` (single isomer, unassigned) [Example 25 (Isomer 2)], the “Acute oral glucose tolerance” value in experiment [1] is given as −38%. For the same compound, the EC50 is 21 nM in experiment [2] and 113 nM in experiment [3].
On the same counts, the results for `COc1cc(N2CC[C@@H](Oc3ccc(N4N=C(C(F)(F)F)[C@@H](C)[C@@H]4CC(=O)O)cc3)[C@H](C)C2)c(Cl)cn1` (single isomer, unassigned) [Example 81, Isomer 2 (neutral form)] are −54%, 9 nM and 71 nM.
Take `COc1ccc(F)c(N2CCC(Oc3ccc(N4N=C(C(F)(F)F)[C@@H](C)[C@@H]4CC(=O)O)cc3)CC2)c1` [Example 1, 2-((4S,5S)-1-(4-((1-(2-Fluoro-5-methoxyphenyl)piperidin-4-yl)oxy)phenyl)-4-methyl-3-(trifluoromethyl)-4,5-dihydro-1H-pyrazol-5-yl)acetic acid]: the “Acute oral glucose tolerance” value in experiment [1] was −47%. The EC50 in experiment [2] stood at 17 nM; in experiment [3] it was 114 nM.
For the compound `CC(C)Oc1ccc(F)c(N2CCC(Oc3ccc(N4N=C(C(F)(F)F)[C@@H](C)[C@@H]4CC(=O)O)cc3)C(C)C2)c1` (stereo partly drawn) [Example 12, 2-((4S,5S)-1-(4-((1-(2-Fluoro-5-isopropoxyphenyl)-3-methylpiperidin-4-yl)oxy)phenyl)-4-methyl-3-(trifluoromethyl)-4,5-dihydro-1H-pyrazol-5-yl)acetic acid], the EC50 in experiment [2] was 253 nM; in experiment [3] it was 311 nM.
The like results for `COc1cc(F)c(F)c(N2CCC(Oc3ccc(N4N=C(C(F)(F)F)[C@@H](C)[C@@H]4CC(=O)O)cc3)CC2)c1` [Example 16, 2-((4S,5S)-1-(4-((1-(2,3-Difluoro-5-methoxyphenyl)piperidin-4-yl)oxy)phenyl)-4-methyl-3-(trifluoromethyl)-4,5-dihydro-1H-pyrazol-5-yl)acetic acid] were, in that order, 133 nM and 273 nM.
As to `CCOc1cc(F)c(F)c(N2CCC(Oc3ccc(N4N=C(C(F)(F)F)[C@@H](C)[C@@H]4CC(=O)O)cc3)CC2)c1` [Example 17, 2-((4S,5S)-1-(4-((1-(5-Ethoxy-2,3-difluorophenyl)piperidin-4-yl)oxy)phenyl)-4-methyl-3-(trifluoromethyl)-4,5-dihydro-1H-pyrazol-5-yl)acetic acid], the EC50 in experiment [2] was determined as 294 nM; in experiment [3] it was 286 nM.
In the case of `CCOc1ccc(F)c(N2CC[C@@H](Oc3ccc(N4N=C(C(F)(F)F)[C@@H](C)[C@@H]4CC(=O)O)cc3)[C@H](C)C2)c1` [Example 29, 2-((4S,5S)-1-(4-(((3R,4R)-1-(5-Ethoxy-2-fluorophenyl)-3-methylpiperidin-4-yl)oxy)phenyl)-4-methyl-3-(trifluoromethyl)-4,5-dihydro-1H-pyrazol-5-yl)acetic acid], the “Acute oral glucose tolerance (average of two experiments)” value in experiment [1] (average of two experiments) is on record as −52%. For the same compound, the half-maximal effective concentration (EC50) in experiment [2] turned out to be 11 nM; in experiment [3] it was 154 nM.
`Cc1ccc(F)c(N2CCC(Oc3ccc(N4N=C(C(F)(F)F)[C@@H](C)[C@@H]4CC(=O)O)cc3)CC2)c1` [Example 36, 2-((4S,5S)-1-(4-((1-(2-Fluoro-5-methylphenyl)piperidin-4-yl)oxy)phenyl)-4-methyl-3-(trifluoromethyl)-4,5-dihydro-1H-pyrazol-5-yl)acetic acid]: the EC50 amounted to 86 nM in experiment [2] and 440 nM in experiment [3].
Consider `COc1cccc(N2CCC(Oc3ccc(N4N=C(C(F)(F)F)[C@@H](C)[C@@H]4CC(=O)O)cc3)CC2)c1` [Example 40, 2-((4S,5S)-1-(4-((1-(3-Methoxyphenyl)piperidin-4-yl)oxy)phenyl)-4-methyl-3-(trifluoromethyl)-4,5-dihydro-1H-pyrazol-5-yl)acetic acid], for which the 50% effective concentration (EC50) in experiment [2] worked out at 107 nM; in experiment [3] it was 620 nM.
Consider `CCc1ccc(F)c(N2CCC(Oc3ccc(N4N=C(C(F)(F)F)[C@@H](C)[C@@H]4CC(=O)O)cc3)CC2)c1` [Example 65, 2-((4S,5S)-1-(4-((1-(5-Ethyl-2-fluorophenyl)piperidin-4-yl)oxy)phenyl)-4-methyl-3-(trifluoromethyl)-4,5-dihydro-1H-pyrazol-5-yl)acetic acid], for which the EC50 was 297 nM in experiment [2] and 583 nM in experiment [3].
On the same counts, the results for `CCc1cccc(N2CCC(Oc3ccc(N4N=C(C(F)(F)F)[C@@H](C)[C@@H]4CC(=O)O)cc3)CC2)c1` [Example 71, 2-((4S,5S)-1-(4-((1-(3-Ethylphenyl)piperidin-4-yl)oxy)phenyl)-4-methyl-3-(trifluoromethyl)-4,5-dihydro-1H-pyrazol-5-yl)acetic acid] are 224 nM and 1180 nM.
As to `COc1cc(N2CCC(Oc3ccc(N4N=C(C(F)(F)F)[C@@H](C)[C@@H]4CC(=O)O)cc3)CC2)c(Cl)cn1` [Example 77, 2-((4S,5S)-1-(4-((1-(5-Chloro-2-methoxypyridin-4-yl)piperidin-4-yl)oxy)phenyl)-4-methyl-3-(trifluoromethyl)-4,5-dihydro-1H-pyrazol-5-yl)acetic acid], the “Acute oral glucose tolerance” value in experiment [1] is recorded as −38%. Also, the EC50 in experiment [2] amounted to 20 nM; in experiment [3], 110 nM.
For `COc1cc(N2CCC(Oc3ccc(N4N=C(C(F)(F)F)[C@@H](C)[C@@H]4CC(=O)O)cc3)CC2)c(F)cn1` [Example 79, 2-((4S,5S)-1-(4-((1-(5-Fluoro-2-methoxypyridin-4-yl)piperidin-4-yl)oxy)phenyl)-4-methyl-3-(trifluoromethyl)-4,5-dihydro-1H-pyrazol-5-yl)acetic acid], the EC50 in experiment [2] came out at 94 nM; in experiment [3], 163 nM.
Regarding `[2H]C([2H])([2H])Oc1cc(N2CC[C@@H](Oc3ccc(N4N=C(C(F)(F)F)[C@@H](C)[C@@H]4CC(=O)O)cc3)[C@H](C)C2)c(Cl)cn1` [Example 87, 2-((4S,5S)-1-(4-(((3R,4R)-1-(5-Chloro-2-d3-methoxypyridin-4-yl)-3-methylpiperidin-4-yl)oxy)phenyl)-4-methyl-3-(trifluoromethyl)-4,5-dihydro-1H-pyrazol-5-yl)acetic acid], the EC50 in experiment [2] is 6 nM; in experiment [3], 74 nM.
With `CCOc1ccc(F)c(N2CCC(Oc3ccc(N4N=C(c5ccc(C#N)cc5)[C@@H](C)[C@@H]4CC(=O)O)cc3)CC2)c1` [Example 93, 2-((4S,5S)-3-(4-Cyanophenyl)-1-(4-((1-(5-ethoxy-2-fluorophenyl)piperidin-4-yl)oxy)phenyl)-4-methyl-4,5-dihydro-1H-pyrazol-5-yl)acetic acid], the “Acute oral glucose tolerance” value in experiment [1] is on record as −56%. Moreover, the half-maximal effective concentration (EC50) in experiment [2] stood at 7 nM; in experiment [3] it was 82 nM.
`CCOc1ccc(F)c(N2CC[C@@H](Oc3ccc(N4N=C(c5ccc(C#N)cc5)[C@@H](CC)[C@@H]4CC(=O)O)cc3)[C@H](C)C2)c1` [Example 99, 2-((4S,5S)-3-(4-Cyanophenyl)-1-(4-(((3R,4R)-1-(5-ethoxy-2-fluorophenyl)-3-methylpiperidin-4-yl)oxy)phenyl)-4-ethyl-4,5-dihydro-1H-pyrazol-5-yl)acetic acid]: the EC50 stood at 20 nM in experiment [2] and 25 nM in experiment [3].
